We go through two molecules from article PMC10535880, “Caco-2 Cell Sheet Partially Laminated with HT29-MTX Cells as a Novel In Vitro Model of Gut Epithelium Drug Permeability” (Pharmaceutics, 2023).

For series [1], the system named is Caco-2/HT29-MTX partially laminated model.
Experimental: In the short-term culture model, Caco-2 monolayers were prepared according to the protocol of the Corning® BioCoat^TM Intestinal Epithelial Cell Environment Kit (Corning Inc., Corning, NY, USA) with slight modifications with reference to the procedure reported by Yamashita et al. [20]. Briefly, Caco-2 cells were seeded at a density of 1 × 10^5 cells/insert onto 24-well Transwell® inserts (0.4 μm pore size, Corning Inc.) using a basal seeding medium. After 24 h of incubation (37 °C, 5% CO2), the basal seeding medium was replaced with the enterocyte differential medium. After an additional 72 h of incubation, a cell monolayer was formed, and the integrity was evaluated via TEER using an epithelial volt-ohmmeter (EVOM2, World Precision Instruments Inc., Sarasota, FL, USA). In the long-term culture model, Caco-2 cells were seeded at a density of 1 × 10^4 cells/insert onto 24-well Transwell® inserts using DMEM containing 10% FBS, 1% nonessential amino acids, and 1% penicillin-streptomycin for 21 days.
(§1) When preparing the partially laminated model, a Caco-2 monolayer with a TEER value ≥ 2000 Ω·cm^2 was formed first, and HT29-MTX cells were then laminated onto the Caco-2 monolayer at ratios of 1:9, 3:7, and 5:5, followed by incubation for the predetermined time. As for the coculture model, Caco-2 and HT29-MTX cells were seeded simultaneously in the different ratios and incubated for the predetermined time to form a hybrid monolayer.
(§2) Briefly, the culture medium on both sides of the Transwell® insert was replaced with HBSS and washed twice with prewarmed HBSS. […] The Papp coefficients of the model drugs were calculated using the following equation [19, 21]:(1) Papp=dQ/dt×1/A.C0 where dQ/dt is the velocity of solutes transported across the culture cell sheet in time, C0 is the concentration of the solute in the apical compartment at time zero, and A is the cross-sectional area of the cell sheet in contact with the apical solution.
The supernatant was collected as a sample for LC-MS/MS. […]
Series [2] relates to Caco-2/HT29-MTX coculture model.
Experimental: as §1, §2
The test system of the next series is HT29-MTX-E12 cells. More on the design: method as in PMID 23869232. The note with it: added during the first six days of semi-wet interface with mechanical stimulation; 28 days of incubation; without addition 3–5 μm; cited from earlier work.

Where two headings read alike, the source gives them in different places.

On to Lucifer yellow, for which the results for the “Papp compared to that in the Caco-2 monolayer” value in series [1] (5:5 ratio of Caco-2/HT29-MTX), in series [1] (7:3 ratio of Caco-2/HT29-MTX) and in series [1] (9:1 ratio of Caco-2/HT29-MTX) were 1.5 times, 1.5 times and “similar”, respectively. For the same molecule, the “Papp compared to that in the Caco-2 monolayer model” value in series [2] is on record as “significantly higher”. Also, the “Papp compared to that of the HT29-MTX monolayer” value in series [2] (independent of the Caco-2:HT29-MTX ratio) is reported as “similar”.
`C[C@H](NC(=O)Cc1cc(F)cc(F)c1)C(=O)NC(C(=O)OC(C)(C)C)c1ccccc1` (stereo partly drawn) [N-[(3,5-difluorophenyl)acetyl]-L-alanyl-2-phenyl]glycine-1,1-dimethylethyl ester]: the mucus layer thickness in the series on HT29-MTX-E12 cells is listed as 25–30 μm.
